Laboratory results: ChEMBL document CHEMBL1201862, “PubChem BioAssay data set” (2004)
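1) Cells in 96-well plates. 2) Compound, 48 h, 5 concentrations. 3) Linear interpolation between surrounding doses. 4) Unreached endpoint = highest concentration. Abbreviation: GI50, concentration required for 50% inhibition of growth.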 Activity calls are given as the source filed them. No stated cut-off is given here; in the data, active = GI50 up to about 1.1 µM and inactive = higher.

Tests used:
Assay in all cases: DTP human tumour cell line panel, 48 h
[1] = test system: DLD-1
[2] = test system: DMS-114
[3] = test system: DMS-273
[4] = test system: RXF 631
[5] = test system: SNB-78
[6] = test system: Hs-578T
[7] = test system: MDA-MB-231
[8] = test system: MDA-MB-435
[9] = test system: PC-3

| Structure (SMILES) | GI50 [1] | GI50 [2] | GI50 [3] | GI50 [4] | GI50 [5] | GI50 [6] | GI50 [7] | GI50 [8] | GI50 [9] |
| --- | --- | --- | --- | --- | --- | --- | --- | --- | --- |
| Cc1ccccc1NC(=O)CC(=O)N1N=C(N2c3ccccc3Sc3ccccc32)CC1c1ccccc1 (stereo unspecified) | > 100 µM (inactive) | > 100 µM (inactive) | > 100 µM (inactive) | > 100 µM (inactive) | > 100 µM (inactive) | – | – | – | – |
| C=C/C=C/NC(=O)OCc1ccccc1 | > 100 µM (inactive) | > 100 µM (inactive) | > 100 µM (inactive) | – | > 100 µM (inactive) | – | – | – | – |
| CCCCSCC(NC(=O)/C=C/c1c(C)[nH]c(=O)[nH]c1=O)C(=O)OC (stereo unspecified) | 54.8 µM (inactive) | 30.1 µM (inactive) | 88.3 µM (inactive) | – | 47 µM (inactive) | – | – | – | – |
| CCCCc1ccc(-n2c3nc(=O)n(C)c(=O)c-3nc3ccccc32)cc1 | – | 4.7 µM (inactive) | 10.3 µM (inactive) | 11.9 µM (inactive) | 16.3 µM (inactive) | – | – | – | – |
| C=CCNC1=NC(=O)C(CC(=O)Nc2cccc(Cl)c2)S1 (stereo unspecified) | > 100 µM (inactive) | > 100 µM (inactive) | > 100 µM (inactive) | > 100 µM (inactive) | – | – | – | – | – |
| COC(=O)C1=C2CCC(=O)[C@@]2(C)C(OC(C)=O)C=CC1 (stereo partly specified) | 41.6 µM (inactive) | 32.7 µM (inactive) | 36.6 µM (inactive) | 20.5 µM (inactive) | 57 µM (inactive) | – | – | – | – |
| [O-][n+]1ccccc1S [PYRITHIONE ZINC] | 0.115 µM (active) | 0.419 µM (active) | 0.366 µM (active) | 0.968 µM (active) | 3.94 µM (inactive) | – | – | – | – |
| COc1ccc(NC(=O)CC(=O)n2nc(C)c(/N=N/c3ccccc3C(=O)O)c2C)cc1 | > 100 µM (inactive) | > 100 µM (inactive) | > 100 µM (inactive) | – | 29.3 µM (inactive) | – | – | – | – |
| CCCCCCC/C=C1\CCC(CN(C)C)C1=O (stereo unspecified) | 7.1 µM (inactive) | – | – | 10.9 µM (inactive) | 16.4 µM (inactive) | 3.88 µM (inactive) | 3.2 µM (inactive) | 5.66 µM (inactive) | 14.5 µM (inactive) |
| CC1CCCCc2nc3c(c(=O)n21)CCCC3 (stereo unspecified) | > 100 µM (inactive) | – | > 100 µM (inactive) | 29.4 µM (inactive) | > 100 µM (inactive) | – | – | – | – |
| O=NN(CCF)C(=O)NC1CCSCC1 | > 100 µM (inactive) | > 100 µM (inactive) | > 100 µM (inactive) | – | > 100 µM (inactive) | – | – | – | – |
| Cc1ccc(C2=C(c3ccccc3)C(Br)(c3ccc(C)cc3)C(c3ccccc3)=C2c2ccc(C)cc2)cc1 | > 100 µM (inactive) | > 100 µM (inactive) | > 100 µM (inactive) | > 100 µM (inactive) | > 100 µM (inactive) | – | – | – | – |
| CC(=O)O[C@H]1CC[C@@]2(C)C(=CC[C@@H]3C2CC[C@]2(C)C(=O)NC(=O)CC32)C1 (stereo partly specified) | > 100 µM (inactive) | > 79.6 µM (inactive) | 62.7 µM (inactive) | > 100 µM (inactive) | > 100 µM (inactive) | – | – | – | – |
| CC1CC2=Nc3ccccc3NC(c3ccccc3)C2=C(O)O1 (stereo unspecified) | > 100 µM (inactive) | > 100 µM (inactive) | > 100 µM (inactive) | – | > 100 µM (inactive) | – | – | – | – |
| Cc1ccccc1NC(=O)C(=O)C1CN(c2ccccc2)N=C1N (stereo unspecified) | > 100 µM (inactive) | – | – | > 100 µM (inactive) | > 100 µM (inactive) | – | – | – | – |
| COc1cc(/C=C/C(=O)Oc2ccc(NC(C)=O)cc2)ccc1C(=O)OCc1ccccc1 | > 100 µM (inactive) | > 90.8 µM (inactive) | 78 µM (inactive) | – | 32.6 µM (inactive) | > 100 µM (inactive) | > 100 µM (inactive) | > 100 µM (inactive) | > 100 µM (inactive) |
| CCCc1c(C(=O)OCC)[nH]c(-c2ccc(-c3[nH]c(C(=O)OCC)c(CCC)c3C(=O)OCC)o2)c1C(=O)OCC | > 100 µM (inactive) | > 100 µM (inactive) | > 100 µM (inactive) | – | > 100 µM (inactive) | – | – | – | – |
| CC1(C)c2ccccc2C(C)(C)C(C(=O)Nc2ccccc2)C1C(=O)O (stereo unspecified) | > 100 µM (inactive) | 91.6 µM (inactive) | > 100 µM (inactive) | – | > 100 µM (inactive) | – | – | – | – |
| CCC1=CCN(c2cc(C)ccn2)OC1c1ccc(OC)cc1 (stereo unspecified) | 30.2 µM (inactive) | 27.9 µM (inactive) | – | 61.2 µM (inactive) | – | – | – | – | – |
| CCCCC1=CSC(c2ccccc2)=C(c2ccccc2)S1 | 82.6 µM (inactive) | > 100 µM (inactive) | 26.7 µM (inactive) | > 100 µM (inactive) | > 100 µM (inactive) | – | – | – | – |
| Cc1cc(C(C)(C)C)cc(Cc2cc(C(C)(C)C)cc(Cc3cc(C(C)(C)C)cc(C)c3O)c2O)c1O | 6.05 µM (inactive) | 4.21 µM (inactive) | 10.9 µM (inactive) | – | 4.98 µM (inactive) | – | – | – | – |
| Cc1cc(Cl)ccc1/N=C1/NC(=O)C(CC(=O)Nc2cccc(C)c2C)S1 (stereo unspecified) | 33.4 µM (inactive) | 22.8 µM (inactive) | 26.1 µM (inactive) | 26.4 µM (inactive) | 28.5 µM (inactive) | – | – | – | – |
| CCOC(=O)C1=C(Nc2ccccc2)OC/C1=N\NC(=O)Cc1ccccc1 | > 50 µM (inactive) | > 50 µM (inactive) | – | > 50 µM (inactive) | > 50 µM (inactive) | – | – | – | – |
| CC1Cc2c(N)nc(N3CCOCC3)nc2NC1=O (stereo unspecified) | > 100 µM (inactive) | > 100 µM (inactive) | > 100 µM (inactive) | – | – | – | – | – | – |
| CSc1nc(NC(=O)O)c(N(C(C)=O)C(=O)O)c(=O)n1C | > 100 µM (inactive) | > 100 µM (inactive) | > 100 µM (inactive) | > 100 µM (inactive) | > 100 µM (inactive) | – | – | – | – |
| CN(CCO)c1nc(=O)c2c([nH]1)CCC2 | > 100 µM (inactive) | > 100 µM (inactive) | > 100 µM (inactive) | – | > 100 µM (inactive) | – | – | – | – |
